Laboratory results from patent publication US20250186379A1, “METHODS AND AGENTS FOR DECREASING INSULIN RESISTANCE” (Whitehead Institute for Biomedical Research, priority 2021, published 2025).

Key:
IR-FKBP condensates = test: tc-PALM of IR-Dendra2-FKBP condensate lifetime in HepG2 cells; type: cell-based, human; details: HepG2 cells expressing IR-FKBP; 5 μM AP1903 16 hours vs DMSO
Text: A CRISPR/Cas9 system was used to generate genetically modified HepG2 cell lines. Target sequences were cloned into a plasmid containing sgRNA backbone, a codon-optimized version of Cas9 and mCherry. For IR targeting, two Cas9 gRNAs were used. For the generation of the IR-mEGFP, IR-Dendra2, and IR-Dendra2-FKBP endogenously tagged lines, homology directed repair templates were cloned into pUC19 using NEBuilder HiFi DNA Assembly Master Mix (NEB, E2621S). For IR-mEGFP and IR-Dendra2 cell lines, the homology repair template consisted of mEGFP or Dendra2 cDNA sequence flanked on either side by 800 bp homology arms amplified from HepG2 genomic DNA using PCR (FIG. 27A). […]
Widefield, live-cell, super-resolution imaging was performed in a photo-activation localization microscopy (PALM) approach using a Nikon Eclipse Ti microscope with a 100× oil immersion objective. […] During each imaging cycle, a 2400-frame video stream including a (256 pixel)^2 region of interest (ROI) was recorded in 20 Hz acquisition rate with the EM-gain setting as 1000 on an Andor iXon Ultra 897 EMCCD. […]
Temporal clustering: For each spatial cluster, time-correlated PALM (tc-PALM) analysis was performed along the time axis to extract the truly colocalized, time-correlated multi-molecule bursting events. […] More details about the quantitative validations and statistics of tc-PALM analysis can be found in FIG. 30.

IR-FKBP = test: Western blotting and imaging of IR activity in HepG2 cells expressing IR-GFP-FKBP; type: cell-based, human; details: 5 μM AP1903 16 hours vs DMSO
Text: For experiments that forced reduction in IR condensate dynamics, the vector used in this assay was modified from pJH135_pb_MCPx2_mCherry_rTTA vector^11. IR-mEGFP-FKBP, which consists of the insulin receptor cDNA, flexible linker 1, mEGFP, flexible linker 2, and four copies of FKBP, was cloned into PmeI and NheI digested pJH135_pb_MCPx2_mCherry_rTTA using Gibson cloning by following the manufacturer's instructions (NEB, E2621S). This vector is called JP204 pb_TetON_INSR_2A_GFP_Dmbr4.
For experiments that forced reduction in IR condensate dynamics, 1×10^5 cells/cm^2 HepG2 cells were transfected with 0.07 μg/cm^2 pJP204_pb_TetON_INSR_2A_GFP_Dmbr4 using Lipofectamine 3000 (Invitrogen, L3000). On day 2, the cells were treated with 100 ng/ml doxycycline (Sigma, D9891-5G). […]
Cells were washed with ice-cold PBS (Life Technologies, AM9625) and lysed in Cell Lytic M (Sigma Aldrich C2978) supplemented with protease and phosphatase inhibitors (Sigma Aldrich, 11873580001 and 4906837001) directly on the wells. […] Super natant was collected and protein concentration was determined using a BCA Protein Assay Kit (Life Technologies, 23250) according to the manufacturer's instructions. […] Immunoblot quantification was performed using the “analyze gel” tool on Fiji/ImageJ v2.1.0/153c.
To quantify pIRS1 fluorescent signal in IR puncta/condensates manually, Airyscan images were opened on Fiji as composite images. […]

CC[C@H](C(=O)N1CCCC[C@H]1C(=O)O[C@H](CCc1ccc(OC)c(OC)c1)c1cccc(OCC(=O)NCCNC(=O)COc2cccc([C@@H](CCc3ccc(OC)c(OC)c3)OC(=O)[C@@H]3CCCCN3C(=O)[C@@H](CC)c3cc(OC)c(OC)c(OC)c3)c2)c1)c1cc(OC)c(OC)c(OC)c1 [AP1903]
lifetime of IR condensates (IR-FKBP condensates): significantly increased the lifetime of IR condensates
IR functional activity (pIR-FKBP, pIRS1) (IR-FKBP): less functionally active
